Columns and labels:
[1] = tested on: human GLP-1R (GLP-1R-YFP); assay: Confocal microscopy of receptor internalization; assay type: cell-based; details: 5 min after 1 µM GLP-1; HEK-293 transiently expressing GLP-1R-YFP; live cell confocal microscopy; at least three experiments
Method: HEK-293 cells transiently expressing GLP-1R-YFP were plated on to a poly-D-lysin-coated coverslip and mounted on to an “Attofluor” holder (Molecular Probes, Leiden, The Netherlands). The cellular location of GLP-1R-YFP was monitored by live cell confocal microscopy performed on a Zeiss LSM 510 meta system (Carl Zeiss, Oberkochen, Germany). YFP was excited with the 514 nm line of an argon laser, and images were taken with an oil-immersion 63× lens using the factory settings for YFP.

GLP-1R = details: radioligand binding and time-resolved fluorescence resonance energy transfer; authors state own rate is in the same range; ref [22],[23]; cited from earlier work

CC[C@H](C)[C@H](NC(=O)[C@H](Cc1ccccc1)NC(=O)[C@H](CCC(=O)O)NC(=O)[C@H](CCCCN)NC(=O)[C@H](C)NC(=O)[C@H](C)NC(=O)[C@H](CCC(N)=O)NC(=O)CNC(=O)[C@H](CCC(=O)O)NC(=O)[C@H](CC(C)C)NC(=O)[C@H](Cc1ccc(O)cc1)NC(=O)[C@H](CO)NC(=O)[C@H](CO)NC(=O)[C@@H](NC(=O)[C@H](CC(=O)O)NC(=O)[C@H](CO)NC(=O)[C@@H](NC(=O)[C@H](Cc1ccccc1)NC(=O)[C@@H](NC(=O)CNC(=O)[C@H](CCC(=O)O)NC(=O)[C@H](C)NC(=O)[C@@H](N)Cc1c[nH]cn1)[C@@H](C)O)[C@@H](C)O)C(C)C)C(=O)N[C@@H](C)C(=O)N[C@@H](Cc1c[nH]c2ccccc12)C(=O)N[C@@H](CC(C)C)C(=O)N[C@H](C(=O)N[C@@H](CCCCN)C(=O)NCC(=O)N[C@@H](CCCNC(=N)N)C(N)=O)C(C)C [GLP-1, glucagon-like peptide-1]
cellular location of GLP-1R-YFP after agonist stimulation [1]: the receptor appeared as punctate dots in the cytoplasm
t1/2 of receptor internalization (range of previous studies) (GLP-1R): 2 to 3 min

Source: PMC6155907 (Molecules : A Journal of Synthetic Chemistry and Natural …, 2016)
